Experimental data reported in US20160159789A1, “SUBSTITUTED PYRAZOLOPYRIDINES” (BAYER PHARMA AKTIENGESELLSCHAFT, priority 2013, published 2016).

Molecular target: T1, human full-length MKNK1 (Homo sapiens, UniProt Q9BUB5, T385D)
T1 construct: purchased Carna Biosciences 02-145; host or cells: insect cells (baculovirus expression system)
Test: MKNK1 kinase high ATP assay (TR-FRET)
Assay type: biochemical
Conditions: high ATP (2 mM final), 15 min preincubation with enzyme, GST-MKNK1 (T344D)
Procedure, shortened: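 GST-tagged full-length human MKNK1 from insect cells, preincubated 15 min with compound at 22° C in HEPES pH 7.5/MgCl2/DTT buffer, then reacted 30 min with 2 mM ATP and 0.06 μM biotinylated peptide (final). Phosphopeptide detected by TR-FRET (anti-pS6 pSer236/Eu-ProteinG, streptavidin-XL665), 665/620 ratio normalised to no-enzyme and no-inhibitor controls.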

T1 sequence (Q9BUB5 1-424 isoform Q9BUB5-2 T344D): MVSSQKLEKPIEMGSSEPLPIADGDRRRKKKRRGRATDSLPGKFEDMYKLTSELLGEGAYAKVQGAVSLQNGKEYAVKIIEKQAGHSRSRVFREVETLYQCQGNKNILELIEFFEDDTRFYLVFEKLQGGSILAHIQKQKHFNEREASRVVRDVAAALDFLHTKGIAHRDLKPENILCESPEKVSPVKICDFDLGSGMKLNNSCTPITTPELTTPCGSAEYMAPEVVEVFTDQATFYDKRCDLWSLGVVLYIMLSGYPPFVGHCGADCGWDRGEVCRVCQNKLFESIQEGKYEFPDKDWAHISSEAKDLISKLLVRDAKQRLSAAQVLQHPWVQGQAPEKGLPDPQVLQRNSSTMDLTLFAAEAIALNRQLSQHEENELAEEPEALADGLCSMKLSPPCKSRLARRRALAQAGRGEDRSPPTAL

Structure (SMILES) | IC50 [nM]
O=C([C@H]1CCc2c(sc3ncnc(Nc4cc5cn[nH]c5cn4)c23)C1)N1CCOCC1 [Example 86, Morpholin-4-yl [(7S)-4-(1H-pyrazolo[3,4-c]pyridin-5-ylamino)-5,6,7,8-tetrahydro[1]benzothieno[2,3-d]pyrimidin-7-yl]methanone] | 7.1
C[C@H]1COCCN1C(=O)[C@H]1CCc2c(sc3ncnc(Nc4cc5cn[nH]c5cn4)c23)C1 [Example 87, [(3S)-3-Methylmorpholin-4-yl][(7S)-4-(1H-pyrazolo[3,4-c]pyridin-5-ylamino)-5,6,7,8-tetrahydro[1]benzothieno[2,3-d]pyrimidin-7-yl]methanone] | 10.5
C[C@@H]1COCCN1C(=O)[C@H]1CCc2c(sc3ncnc(Nc4cc5cn[nH]c5cn4)c23)C1 [Example 88, [(3R)-3-Methylmorpholin-4-yl][(7S)-4-(1H-pyrazolo[3,4-c]pyridin-5-ylamino)-5,6,7,8-tetrahydro[1]benzothieno[2,3-d]pyrimidin-7-yl]methanone] | 8
C[C@@H]1CN(C(=O)[C@H]2CCc3c(sc4ncnc(Nc5cc6cn[nH]c6cn5)c34)C2)C[C@H](C)O1 [Example 89, [(2R,6S)-2,6-Dimethylmorpholin-4-yl][(7S)-4-(1H-pyrazolo[3,4-c]pyridin-5-ylamino)-5,6,7,8-tetrahydro[1]benzothieno[2,3-d]pyrimidin-7-yl]methanone] | 5.9
CN1CCN(C(=O)[C@H]2CCc3c(sc4ncnc(Nc5cc6cn[nH]c6cn5)c34)C2)CC1 [Example 90, (4-Methylpiperazin-1-yl)[(7S)-4-(1H-pyrazolo[3,4-c]pyridin-5-ylamino)-5,6,7,8-tetrahydro[1]benzothieno[2,3-d]pyrimidin-7-yl]methanone] | 5.2
CN(C)C1CCN(C(=O)[C@H]2CCc3c(sc4ncnc(Nc5cc6cn[nH]c6cn5)c34)C2)CC1 [Example 91, [4-(Dimethylamino)piperidin-1-yl][(7S)-4-(1H-pyrazolo[3,4-c]pyridin-5-ylamino)-5,6,7,8-tetrahydro[1]benzothieno[2,3-d]pyrimidin-7-yl]methanone] | 3.1
CCN(C)C(=O)[C@H]1CCc2c(sc3ncnc(Nc4cnc5[nH]ncc5c4)c23)C1 [Example 92, (7S)—N-Ethyl-N-methyl-4-(1H-pyrazolo[3,4-b]pyridin-5-ylamino)-5,6,7,8-tetrahydro[1]benzothieno[2,3-d]pyrimidine-7-carboxamide] | 15.4
CCCN(C)C(=O)[C@H]1CCc2c(sc3ncnc(Nc4cnc5[nH]ncc5c4)c23)C1 [Example 93, (7S)—N-Methyl-N-propyl-4-(1H-pyrazolo[3,4-b]pyridin-5-ylamino)-5,6,7,8-tetrahydro[1]benzothieno[2,3-d]pyrimidine-7-carboxamide] | 13.5
CN(CCC(F)(F)F)C(=O)[C@H]1CCc2c(sc3ncnc(Nc4cnc5[nH]ncc5c4)c23)C1 [Example 94, (7S)—N-Methyl-4-(1H-pyrazolo[3,4-b]pyridin-5-ylamino)-N-(3,3,3-trifluoropropyl)-5,6,7,8-tetrahydro[1]benzothieno[2,3-d]pyrimidine-7-carboxamide] | 8.2
CC(C)N(C)C(=O)[C@H]1CCc2c(sc3ncnc(Nc4cnc5[nH]ncc5c4)c23)C1 [Example 95, (7S)—N-Methyl-N-(propan-2-yl)-4-(1H-pyrazolo[3,4-b]pyridin-5-ylamino)-5,6,7,8-tetrahydro[1]benzothieno[2,3-d]pyrimidine-7-carboxamide] | 18
COCCN(C)C(=O)[C@H]1CCc2c(sc3ncnc(Nc4cnc5[nH]ncc5c4)c23)C1 [Example 96, (7S)—N-(2-Methoxyethyl)-N-methyl-4-(1H-pyrazolo[3,4-b]pyridin-5-ylamino)-5,6,7,8-tetrahydro[1]benzothieno[2,3-d]pyrimidine-7-carboxamide] | 18.8
O=C([C@H]1CCc2c(sc3ncnc(Nc4cnc5[nH]ncc5c4)c23)C1)N1CCC1 [Example 97, Azetidin-1-yl[(7S)-4-(1H-pyrazolo[3,4-b]pyridin-5-ylamino)-5,6,7,8-tetrahydro[1]benzothieno[2,3-d]pyrimidin-7-yl]methanone] | 47.6
O=C([C@H]1CCc2c(sc3ncnc(Nc4cnc5[nH]ncc5c4)c23)C1)N1CC2(COC2)C1 [Example 98, 2-Oxa-6-azaspiro[3.3]hept-6-yl[(7S)-4-(1H-pyrazolo[3,4-b]pyridin-5-ylamino)-5,6,7,8-tetrahydro[1]benzothieno[2,3-d]pyrimidin-7-yl]methanone] | 15.8
N#CC1CN(C(=O)[C@H]2CCc3c(sc4ncnc(Nc5cnc6[nH]ncc6c5)c34)C2)C1 [Example 99, 1-{[(7S)-4-(1H-Pyrazolo[3,4-b]pyridin-5-ylamino)-5,6,7,8-tetrahydro[1]benzothieno[2,3-d]pyrimidin-7-yl]carbonyl}azetidine-3-carbonitrile] | 14.5
CN(C)[C@H]1CCN(C(=O)[C@H]2CCc3c(sc4ncnc(Nc5cnc6[nH]ncc6c5)c34)C2)C1 [Example 100, [(3S)-3-(Dimethylamino)pyrrolidin-1-yl][(7S)-4-(1H-pyrazolo[3,4-b]pyridin-5-ylamino)-5,6,7,8-tetrahydro[1]benzothieno[2,3-d]pyrimidin-7-yl]methanone] | 3.7
CN(C)[C@@H]1CCN(C(=O)[C@H]2CCc3c(sc4ncnc(Nc5cnc6[nH]ncc6c5)c34)C2)C1 [Example 101, [(3R)-3-(Dimethylamino)pyrrolidin-1-yl][(7S)-4-(1H-pyrazolo[3,4-b]pyridin-5-ylamino)-5,6,7,8-tetrahydro[1]benzothieno[2,3-d]pyrimidin-7-yl]methanone] | 4.6
O=C([C@H]1CCc2c(sc3ncnc(Nc4cnc5[nH]ncc5c4)c23)C1)N1CCOCC1 [Example 102, Morpholin-4-yl[(7S)-4-(1H-pyrazolo[3,4-b]pyridin-5-ylamino)-5,6,7,8-tetrahydro[1]benzothieno[2,3-d]pyrimidin-7-yl]methanone] | 27
C[C@@H]1COCCN1C(=O)[C@H]1CCc2c(sc3ncnc(Nc4cnc5[nH]ncc5c4)c23)C1 [Example 103, [(3R)-3-Methylmorpholin-4-yl][(7S)-4-(1H-pyrazolo[3,4-b]pyridin-5-ylamino)-5,6,7,8-tetrahydro[1]benzothieno[2,3-d]pyrimidin-7-yl]methanone] | 35.8
C[C@H]1COCCN1C(=O)[C@H]1CCc2c(sc3ncnc(Nc4cnc5[nH]ncc5c4)c23)C1 [Example 104, [(3S)-3-Methylmorpholin-4-yl][(7S)-4-(1H-pyrazolo[3,4-b]pyridin-5-ylamino)-5,6,7,8-tetrahydro[1]benzothieno[2,3-d]pyrimidin-7-yl]methanone] | 28.7
C[C@@H]1CN(C(=O)[C@H]2CCc3c(sc4ncnc(Nc5cnc6[nH]ncc6c5)c34)C2)C[C@H](C)O1 [Example 105, [(2R,6S)-2,6-Dimethylmorpholin-4-yl][(7S)-4-(1H-pyrazolo[3,4-b]pyridin-5-ylamino)-5,6,7,8-tetrahydro[1]benzothieno[2,3-d]pyrimidin-7-yl]methanone] | 18.1
CN1CCN(C(=O)[C@H]2CCc3c(sc4ncnc(Nc5cnc6[nH]ncc6c5)c34)C2)CC1 [Example 106, (4-Methylpiperazin-1-yl)[(7S)-4-(1H-pyrazolo[3,4-b]pyridin-5-ylamino)-5,6,7,8-tetrahydro[1]benzothieno[2,3-d]pyrimidin-7-yl]methanone] | 20.4
CN(C)C1CCN(C(=O)[C@H]2CCc3c(sc4ncnc(Nc5cnc6[nH]ncc6c5)c34)C2)CC1 [Example 107, [4-(Dimethylamino)piperidin-1-yl][(7S)-4-(1H-pyrazolo[3,4-b]pyridin-5-ylamino)-5,6,7,8-tetrahydro[1]benzothieno[2,3-d]pyrimidin-7-yl]methanone] | 13.3
COc1nc2[nH]ncc2cc1Nc1ncnc2sc3c(c12)CC[C@H](C(=O)N1CC(C#N)C1)C3 [Example 108, 1-({(7S)-4-[(6-Methoxy-1H-pyrazolo[3,4-b]pyridin-5-yl)amino]-5,6,7,8-tetrahydro[1]benzothieno[2,3-d]pyrimidin-7-yl}carbonyl)azetidine-3-carbonitrile] | 0.7
COc1nc2[nH]ncc2cc1Nc1ncnc2sc3c(c12)CC[C@H](C(=O)N1CC2(COC2)C1)C3 [Example 109] | 0.7
COc1nc2[nH]ncc2cc1Nc1ncnc2sc3c(c12)CC[C@H](C(=O)N1CC[C@@H](N(C)C)C1)C3 [Example 110, [(3R)-3-(Dimethylamino)pyrrolidin-1-yl]{(7S)-4-[(6-methoxy-1H-pyrazolo[3,4-b]pyridin-5-yl)amino]-5,6,7,8-tetrahydro[1]benzothieno[2,3-d]pyrimidin-7-yl}methanone] | 0.4
COc1nc2[nH]ncc2cc1Nc1ncnc2sc3c(c12)CC[C@H](C(=O)N1CC[C@H](N(C)C)C1)C3 [Example 111, [(3S)-3-(Dimethylamino)pyrrolidin-1-yl]{(7S)-4-[(6-methoxy-1H-pyrazolo[3,4-b]pyridin-5-yl)amino]-5,6,7,8-tetrahydro[1]benzothieno[2,3-d]pyrimidin-7-yl}methanone] | 1.3
CCN(C)C(=O)[C@H]1CCc2c(sc3ncnc(Nc4cc5cn[nH]c5nc4O)c23)C1 [Example 112, (7S)—N-Ethyl-4-[(6-hydroxy-1H-pyrazolo[3,4-b]pyridin-5-yl)amino]-N-methyl-5,6,7,8-tetrahydro[1]benzothieno[2,3-d]pyrimidine-7-carboxamide] | 4.6
CCCN(C)C(=O)[C@H]1CCc2c(sc3ncnc(Nc4cc5cn[nH]c5nc4O)c23)C1 [Example 113, (7S)-4-[(6-Hydroxy-1H-pyrazolo[3,4-b]pyridin-5-yl)amino]-N-methyl-N-propyl-5,6,7,8-tetrahydro[1]benzothieno[2,3-d]pyrimidine-7-carboxamide] | 3.3
